Laboratory results taken from patent US20250115583A1, “BICYCLIC INDAZOLE GLUCOCORTICOID RECEPTOR ANTAGONISTS” (Corcept Therapeutics Incorporated, priority 2021, published 2025).

Each compound was assayed against glucocorticoid receptor (Homo sapiens (Human), UniProt P04150) (assay: HepG2 TAT assay: inhibition of dexamethasone-induced tyrosine aminotransferase (TAT) activity). Settings: HepG2 cells, challenge of 100 nM dexamethasone, 18-24 hr; IC50 converted to Ki by Cheng and Prusoff equation.
Type: cell-based
Protocol: Glucocorticoid mediated activation of TAT occurs by transactivation of glucocorticoid response elements in the TAT promoter by glucocorticoid receptor-agonist complex.
HepG2 cells were cultured using MEME media supplemented with 10% (v/v) foetal bovine serum; 2 mM L-glutamine and 1% (v/v) NEAA at 37° C., 5%/95% (v/v) CO2/air.
Compounds were serially half log diluted in 100% (v/v) dimethylsulphoxide from a 10 mM stock.
HepG2 cells were then lysed with 30 μl of cell lysis buffer containing a protease inhibitor cocktail for 15 minutes at 4° C. […] After 2 hours incubation at 37° C. the reaction was terminated by the addition of 15 μl of 10M aqueous potassium hydroxide solution, and the plates incubated for a further 30 minutes at 37° C.
[compound] and fitting the data to a 4 parameter logistic equation.

glucocorticoid receptor, sequence (P04150 whole entry): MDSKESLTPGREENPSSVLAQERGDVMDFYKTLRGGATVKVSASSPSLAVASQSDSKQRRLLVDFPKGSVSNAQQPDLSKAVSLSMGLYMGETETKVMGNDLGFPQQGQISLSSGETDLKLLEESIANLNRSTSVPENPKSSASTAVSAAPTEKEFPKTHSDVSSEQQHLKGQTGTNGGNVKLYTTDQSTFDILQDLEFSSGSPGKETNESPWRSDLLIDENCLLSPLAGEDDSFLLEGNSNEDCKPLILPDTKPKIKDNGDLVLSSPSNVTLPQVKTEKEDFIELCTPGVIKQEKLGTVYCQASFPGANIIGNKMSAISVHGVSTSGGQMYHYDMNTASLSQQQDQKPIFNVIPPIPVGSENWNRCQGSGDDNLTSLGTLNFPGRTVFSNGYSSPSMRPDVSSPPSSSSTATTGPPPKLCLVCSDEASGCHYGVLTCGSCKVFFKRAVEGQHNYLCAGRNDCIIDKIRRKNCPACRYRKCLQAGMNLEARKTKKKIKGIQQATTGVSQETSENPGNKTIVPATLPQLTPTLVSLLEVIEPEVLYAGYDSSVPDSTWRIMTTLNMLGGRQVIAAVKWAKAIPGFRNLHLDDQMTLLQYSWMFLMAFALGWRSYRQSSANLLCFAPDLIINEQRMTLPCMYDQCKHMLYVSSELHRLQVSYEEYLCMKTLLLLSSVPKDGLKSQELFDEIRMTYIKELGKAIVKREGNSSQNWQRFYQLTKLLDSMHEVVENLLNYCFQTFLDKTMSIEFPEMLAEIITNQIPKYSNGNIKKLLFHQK

Compound | Ki
5-(6-((4,4-difluoropiperidin-1-yl)methyl)-3-((2-methyl-2H-1,2,3-triazol-4-yl)sulfonyl)-3-azabicyclo[3.1.0]hexan-1-yl)-1-(4-fluorophenyl)-6-methyl-1H-indazole [Example 181] | 250 nM
CC(=O)NC[C@@H]1[C@H]2CN(S(=O)(=O)c3cnn(C)n3)C[C@@]12c1cc2cnn(-c3ccc(F)cc3)c2cc1C (racemic) [Example 135, N-((1-(1-(4-fluorophenyl)-6-methyl-1H-indazol-5-yl)-3-((2-methyl-2H-1,2,3-triazol-4-yl)sulfonyl)-3-azabicyclo[3.1.0]hexan-6-yl)methyl)acetamide] | 300 nM
CO[C@@]1(c2ccccc2)C[C@H]2CN(C(=O)c3ccccc3)C[C@@]2(c2cc3cnn(-c4ccc(F)cc4)c3cc2C)C1 (single isomer, unassigned) [Example 20, (3a-(1-(4-fluorophenyl)-6-methyl-1H-indazol-5-yl)-5-methoxy-5-phenylhexahydrocyclopenta[c]pyrrol-2(1H)-yl)(phenyl)methanone] | 79 nM
Cc1cc2c(cnn2-c2ccc(F)cc2)cc1C12CN(S(=O)(=O)c3cnn(C)n3)CC1C2COc1ccc(Cl)cc1 (single isomer, unassigned) [Example 52, 5-(6-((4-chlorophenoxy)methyl)-3-((2-methyl-2H-1,2,3-triazol-4-yl)sulfonyl)-3-azabicyclo[3.1.0]hexan-1-yl)-1-(4-fluorophenyl)-6-methyl-1H-indazole] | 380 nM
Cc1cc2c(cnn2-c2ccc(F)cc2)cc1C12CN(S(=O)(=O)c3cnn(C)n3)CC1C2COc1ccc(Cl)cc1 (single isomer, unassigned) [Example 53, 5-(6-((4-chlorophenoxy)methyl)-3-((2-methyl-2H-1,2,3-triazol-4-yl)sulfonyl)-3-azabicyclo[3.1.0]hexan-1-yl)-1-(4-fluorophenyl)-6-methyl-1H-indazole] | 110 nM
CCCn1cc(S(=O)(=O)N2C[C@@H]3[C@@H](c4ccccc4)[C@]3(c3cc4cnn(-c5ccc(F)cc5)c4cc3C)C2)cn1 (single isomer, unassigned) [Example 69, 1-(4-fluorophenyl)-6-methyl-5-(6-phenyl-3-((1-propyl-1H-pyrazol-4-yl)sulfonyl)-3-azabicyclo[3.1.0]hexan-1-yl)-1H-indazole] | 24 nM
Cc1cc2c(cnn2-c2ccc(F)cc2)cc1[C@@]12CN(S(=O)(=O)c3ccn(C)n3)C[C@@H]1[C@H]2c1ccccc1 (single isomer, unassigned) [Example 76] | 9.4 nM
Cc1cc2c(cnn2-c2ccc(F)cc2)cc1[C@@]12CN(S(=O)(=O)N3CCCC3)C[C@@H]1[C@H]2c1ccccc1 (single isomer, unassigned) [Example 99] | 28 nM
CC(=O)N1C[C@@H]2[C@@H](c3ccccc3)[C@]2(c2cc3cnn(-c4ccc(F)cc4)c3cc2C)C1 (single isomer, unassigned) [Example 111, 1-(1-(1-(4-fluorophenyl)-6-methyl-1H-indazol-5-yl)-6-phenyl-3-azabicyclo[3.1.0]hexan-3-yl)ethan-1-one] | 52 nM
Cc1cc2c(cnn2-c2ccc(F)cc2)cc1[C@@]12CN(C(=O)c3cccnc3)C[C@@H]1[C@H]2c1ccccc1 (single isomer, unassigned) [Example 112, (1-(1-(4-fluorophenyl)-6-methyl-1H-indazol-5-yl)-6-phenyl-3-azabicyclo[3.1.0]hexan-3-yl)(pyridin-3-yl)methanone] | 65 nM
Cc1cc2c(cnn2-c2ccc(F)cc2)cc1[C@@]12CN(C(=O)C(C)C)C[C@@H]1[C@H]2c1ccccc1 (single isomer, unassigned) [Example 113, 1-(1-(1-(4-fluorophenyl)-6-methyl-1H-indazol-5-yl)-6-phenyl-3-azabicyclo[3.1.0]hexan-3-yl)-2-methylpropan-1-one] | 58 nM
COC(=O)N1C[C@@H]2[C@@H](c3ccccc3)[C@]2(c2cc3cnn(-c4ccc(F)cc4)c3cc2C)C1 (single isomer, unassigned) [Example 118, methyl 1-(1-(4-fluorophenyl)-6-methyl-1H-indazol-5-yl)-6-phenyl-3-azabicyclo[3.1.0]hexane-3-carboxylate] | 40 nM
COCC(=O)N1C[C@@H]2[C@@H](c3ccccc3)[C@]2(c2cc3cnn(-c4ccc(F)cc4)c3cc2C)C1 (single isomer, unassigned) [Example 119, 1-(1-(1-(4-fluorophenyl)-6-methyl-1H-indazol-5-yl)-6-phenyl-3-azabicyclo[3.1.0]hexan-3-yl)-2-methoxyethan-1-one] | 48 nM
CCOC(=O)N1C[C@@H]2[C@@H](c3ccccc3)[C@]2(c2cc3cnn(-c4ccc(F)cc4)c3cc2C)C1 (single isomer, unassigned) [Example 122, ethyl 1-(1-(4-fluorophenyl)-6-methyl-1H-indazol-5-yl)-6-phenyl-3-azabicyclo[3.1.0]hexane-3-carboxylate] | 22 nM
COCCOC(=O)N1C[C@@H]2[C@@H](c3ccccc3)[C@]2(c2cc3cnn(-c4ccc(F)cc4)c3cc2C)C1 (single isomer, unassigned) [Example 123, 2-methoxyethyl 1-(1-(4-fluorophenyl)-6-methyl-1H-indazol-5-yl)-6-phenyl-3-azabicyclo[3.1.0]hexane-3-carboxylate] | 27 nM
CNC(=O)N1C[C@@H]2[C@@H](c3ccccc3)[C@]2(c2cc3cnn(-c4ccc(F)cc4)c3cc2C)C1 (single isomer, unassigned) [Example 124, 1-(1-(4-fluorophenyl)-6-methyl-1H-indazol-5-yl)-N-methyl-6-phenyl-3-azabicyclo[3.1.0]hexane-3-carboxamide] | 120 nM
Cc1cc2c(cnn2-c2ccc(F)cc2)cc1[C@@]12CN(C(=O)OC3CCOCC3)C[C@@H]1[C@H]2c1ccccc1 (single isomer, unassigned) [Example 125, tetrahydro-2H-pyran-4-yl 1-(1-(4-fluorophenyl)-6-methyl-1H-indazol-5-yl)-6-phenyl-3-azabicyclo[3.1.0]hexane-3-carboxylate] | 29 nM
Cc1cc2c(cnn2-c2ccc(F)cc2)cc1[C@@]12CN(C(=O)N3CCCC3)C[C@@H]1[C@H]2c1ccccc1 (single isomer, unassigned) [Example 126, (1-(1-(4-fluorophenyl)-6-methyl-1H-indazol-5-yl)-6-phenyl-3-azabicyclo[3.1.0]hexan-3-yl)(pyrrolidin-1-yl)methanone] | 34 nM
Cc1cc2c(cnn2-c2ccc(F)cc2)cc1[C@@]12CN(C(=O)c3cnn(C)n3)C[C@@H]1[C@H]2c1ccccc1 (single isomer, unassigned) [Example 127, (1-(1-(4-fluorophenyl)-6-methyl-1H-indazol-5-yl)-6-phenyl-3-azabicyclo[3.1.0]hexan-3-yl)(2-methyl-2H-1,2,3-triazol-4-yl)methanone] | 19 nM
Cc1cc2c(cnn2-c2ccc(F)cc2)cc1[C@@]12CN(C(=O)c3ccccc3F)C[C@@H]1[C@H]2c1ccccc1 (single isomer, unassigned) [Example 128, (2-fluorophenyl)(1-(1-(4-fluorophenyl)-6-methyl-1H-indazol-5-yl)-6-phenyl-3-azabicyclo[3.1.0]hexan-3-yl)methanone] | 5.9 nM
Cc1cc2c(cnn2-c2ccc(F)cc2)cc1[C@@]12CN(C(=O)c3cnn(C)c3)C[C@@H]1[C@H]2c1ccccc1 (single isomer, unassigned) [Example 129, (1-(1-(4-fluorophenyl)-6-methyl-1H-indazol-5-yl)-6-phenyl-3-azabicyclo[3.1.0]hexan-3-yl)(1-methyl-1H-pyrazol-4-yl)methanone] | 37 nM
Cc1cc2c(cnn2-c2ccc(F)cc2)cc1[C@@]12CN(C(=O)c3ccccc3C#N)C[C@@H]1[C@H]2c1ccccc1 (single isomer, unassigned) [Example 130, 2-(1-(1-(4-fluorophenyl)-6-methyl-1H-indazol-5-yl)-6-phenyl-3-azabicyclo[3.1.0]hexane-3-carbonyl)benzonitrile] | 5.7 nM
Cc1cc2c(cnn2-c2ccc(F)cc2)cc1[C@@]12CN(S(=O)(=O)C3COC3)C[C@@H]1[C@H]2c1ccccc1 (single isomer, unassigned) [Example 140, 5-(3-(oxetan-3-ylsulfonyl)-6-phenyl-3-azabicyclo[3.1.0]hexan-1-yl)-1-(4-fluorophenyl)-6-methyl-1H-indazole] | 65 nM
COc1cccc(C(=O)N2C[C@@H]3[C@@H](c4ccccc4)[C@]3(c3cc4cnn(-c5ccc(F)cc5)c4cc3C)C2)c1 (single isomer, unassigned) [Example 141, (1-(1-(4-fluorophenyl)-6-methyl-1H-indazol-5-yl)-6-phenyl-3-azabicyclo[3.1.0]hexan-3-yl)(3-methoxyphenyl)methanone] | 19 nM
Cc1ccnc(C(=O)N2C[C@@H]3[C@@H](c4ccccc4)[C@]3(c3cc4cnn(-c5ccc(F)cc5)c4cc3C)C2)c1 (single isomer, unassigned) [Example 146, (1-(1-(4-fluorophenyl)-6-methyl-1H-indazol-5-yl)-6-phenyl-3-azabicyclo[3.1.0]hexan-3-yl)(4-methylpyridin-2-yl)methanone] | 14 nM
Cc1cc2c(cnn2-c2ccc(F)cc2)cc1[C@@]12CN(C(=O)c3ncccc3C(F)(F)F)C[C@@H]1[C@H]2c1ccccc1 (single isomer, unassigned) [Example 148, (1-(1-(4-fluorophenyl)-6-methyl-1H-indazol-5-yl)-6-phenyl-3-azabicyclo[3.1.0]hexan-3-yl)(3-(trifluoromethyl)pyridin-2-yl)methanone] | 9.2 nM
